Measurements taken from publication PMC3179935, “Gallus gallus NEU3 sialidase as model to study protein evolution mechanism based on rapid evolving loops” (BMC Biochemistry, 2011).

Target: T1, Mm NEU3 (Mm NEU3-HA) (Mus musculus, UniProt Q9JMH7)
T1 construct: HA tag, pcDNAI, transiently expressed in COS7, total cell lysate
T1 sequence (Q9JMH7 1-418): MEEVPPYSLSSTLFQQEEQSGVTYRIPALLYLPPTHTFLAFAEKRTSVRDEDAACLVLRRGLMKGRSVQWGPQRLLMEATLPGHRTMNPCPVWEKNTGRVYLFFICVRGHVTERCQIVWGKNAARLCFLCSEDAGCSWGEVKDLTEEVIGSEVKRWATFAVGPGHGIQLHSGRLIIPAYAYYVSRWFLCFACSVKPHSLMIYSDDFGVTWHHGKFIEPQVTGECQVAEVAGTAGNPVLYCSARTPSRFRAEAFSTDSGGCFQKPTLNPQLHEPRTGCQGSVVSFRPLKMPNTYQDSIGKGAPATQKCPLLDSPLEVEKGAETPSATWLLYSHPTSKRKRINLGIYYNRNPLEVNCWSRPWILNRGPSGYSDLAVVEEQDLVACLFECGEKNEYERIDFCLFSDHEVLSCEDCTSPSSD
Test: sialidase activity in transfected COS7 lysate
Format: biochemical
Settings: positive control; pH range 2.5-5.5; 37 °C

CC(=O)N[C@H]1[C@H]([C@H](O)[C@H](O)CO)O[C@@](Oc2ccc3c(C)cc(=O)oc3c2)(C(=O)O)C[C@@H]1O [4-MU-NeuAc]
sialidase activity in transfected COS7 lysate: pcDNAI-Mm NEU3-HA transfected cells were used as control
